Values after ≈ are worked out from the molar mass of the structure shown. Values joined by “and” are separate entries in the source; they are usually repeats but may differ in a detail not shown here. Equal values may be shown once. Read-outs that look alike come from different tables or passages of the source.

Experiment [1] deals with MCF7. As to the kind of experiment: Inhibition of cancer cell growth as measured by cell number, MCF7.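 As to all read-outs here: MCF7 was included as a line with little or no EGFR or HER2/neu expression, in contrast to the receptor-overexpressing lines of the panel.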 To be noted: Table 8; for IC50: Homo sapiens, MCF7, 48 h. The class given is cell-based, human.
Source text: (§1) The cell lines were chosen since they overexpressed epidermal growth factor receptor (EGFR) (i.e. A431) or HER2/neu (SKBR3), or had little to no expression of the these receptors (SW620, LOX, MCF7).
Experiment [2] deals with SKBR3. As to the kind of experiment: Inhibition of cancer cell growth as measured by cell number, SKBR3.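 Also: SK-BR-3 cells were selected as a line overexpressing HER2/neu.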 It is filed as cell-based, human. To be noted: Homo sapiens, Table 8.
Source text: as §1
Experiment [3] has as its system SW620. Description: Inhibition of cancer cell growth as measured by cell number, SW620.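 Also: SW620 was included as a cell line with little or no EGFR or HER2/neu expression, in contrast to receptor-overexpressing lines.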 As to conditions: Homo sapiens, SW-620, 48 h. The class given is cell-based, human.
Source text: as §1
The subject of experiment [4] is LOX. Description: Inhibition of cancer cell growth as measured by cell number, LOX.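 As to all read-outs here: LOX cells served as a line with low or absent EGFR and HER2/neu expression, in contrast to receptor-overexpressing lines.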 It is filed as cell-based, human. As to conditions: Table 8; for IC50: Homo sapiens, LOX, 48 h.
Source text: as §1
In experiment [5] the target is recombinant human MEK 1 (MAPKK) and recombinant human ERK2 (MAPK). Description: Mitogen Activated Protein Kinase (MAPK) assay, two component coupled MEK 1 / ERK2.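 Also: MEK 1-activated ERK2 phosphorylates MBP or Myc peptide with 33P-ATP, filter capture and scintillation counting, inhibitor preincubated with ERK2 30 min at 0 °C, inhibition relative to uninhibited control.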 The class given is biochemical. As to conditions: separate entries for the same compound = evaluated more than one time.
Procedure: To evaluate inhibitors of the MAP (mitogen activated protein) kinase a two component coupled standard pharmacological test procedure, which measures phosphorylation of a serine/threonine residue in an appropriate sequence in the substrate in the presence and absence of a putative inhibitor, was used. Recombinant human MEK 1 (MAPKK) was first used to activate recombinant human ERK2 (MAPK) and the activated MAPK (ERK) was incubated with substrate (MBP peptide or MYC peptide) in the presence of ATP, Mg^+2 and radiolabeled ^33P ATP. The phosphorylated peptide was captured on a P 81 phosphocellulose filter (paper filter or embedded in microtiter plate) washed and counted by scintillation methods.
The peptide substrates used in the assay are MBP, peptide substrate ([sequence]), or synthetic Myc substrate, ([sequence]•5 TFA. The recombinant enzymes used were prepared as GST fusion proteins of human ERK 2 and human MEK 1. Inhibitor samples were prepared as 10X stocks in 10% DMSO and an appropriate aliquot was used to deliver either 10 ug/ml for a single point screening dose or 100, 10, 1, and 0.1 uM final concentration for a dose response curve. Final DMSO concentrations were less than or equal to 1%.
The reaction was run as follows in 50 mM Tris kinase buffer, pH 7.4 in a reaction volume of 50 ul. The appropriate volume of kinase buffer and inhibitor sample was added to the tube. Appropriate dilution of enzyme was delivered to give 2-5 ug recombinant MAPK (Erk ) per tube. The inhibitor was incubated with MAPK (Erk) for 30 min at 0 deg. […] Recombinant Mek (MAPKK) ( 0.5-2.5 ug) or fully activated Mek (0.05-0.1 units) was added to activate the Erk and incubated for 30 min at 30° C. […] Samples were incubated at 30°C for 30 minutes and the reaction was stopped by adding 25 µl of ice cold 10 %TCA .After samples were chilled on ice for 30 min, 20 µl of sample was transferred onto P 81 phosphocellulose filter paper or appropriate MTP with embedded P 81 filter. Filter papers or MTP were washed 2 times with a large volume of 1% acetic acid, then 2 times with water. The filters or MTP were briefly air dried before addition of scintillant and samples were counted in the appropriate scintillation counter set up for reading ^33P isotope.
The raw data was captured as cpm. Sample replicates were averaged and corrected for background count. Mean cpm data was tabulated by group and % inhibition by a test compound was calculated as (corrected cpm control- corrected. cpm sample/control) X 100 = % inhibition.
The subject of experiment [6] is A431. As to the kind of experiment: Inhibition of cancer cell growth as measured by cell number, A431.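 As to all read-outs here: human A431 line, picked because it overexpresses epidermal growth factor receptor (EGFR).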 It is filed as cell-based, human. As to conditions: Table 8; for IC50: Homo sapiens, A-431, 48 h.
Source text: as §1
Experiment [7] has as its target T1, His-tagged cytoplasmic domain of EGFR (Homo sapiens, UniProt P00533).
T1 construct: containing the EGFR cDNA encoding amino acids 645 - 1186 preceded by Met-Ala-(His)6; made in house; host or cells: Sf9 cells, recombinant baculovirus vHcEGFR52
As to the kind of experiment: Inhibition of Epidermal Growth Factor Receptor Kinase (EGF-R) using recombinant enzyme.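 Also: radiometric kinase assay measuring radiolabeled phosphate transfer from ATP onto the peptide tyrosine by scintillation counting, control is reaction without compound, background subtracted, IC50 from dose-response curve.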 It is filed as biochemical. To be noted: recombinant enzyme; RR-SRC peptide; average of the number of tests; read-out: IC50.

Where [8] appears, read: read-out: IC50 MCF7, cell number, Sulforhodamine B, 48 hours exposure.
The mark [9] stands for this setting: SK-BR-3, 48 h, read-out: IC50 SKBR3, cell number, Sulforhodamine B, 48 hours exposure.
Setting [10] is: read-out: IC50 SW620, cell number, Sulforhodamine B, 48 hours exposure, Table 8.
The mark [11] stands for this setting: read-out: IC50 LOX, cell number, Sulforhodamine B, 48 hours exposure.
The mark [12] stands for this setting: read-out: IC50 A431, cell number, Sulforhodamine B, 48 hours exposure.
Setting [13] is: cell number, Sulforhodamine B, 48 hours exposure.
Setting [14] is: SK-BR-3, cell number, Sulforhodamine B, 48 hours exposure, read-out: IC50 SKBR3.
[15] abbreviates: cell number, Sulforhodamine B, 48 hours exposure, read-out: IC50 A431.
Setting [16] is: cell number, Sulforhodamine B, 48 hours exposure, Table 8, read-out: IC50 SW620.

T1 sequence (P00533 669-1210): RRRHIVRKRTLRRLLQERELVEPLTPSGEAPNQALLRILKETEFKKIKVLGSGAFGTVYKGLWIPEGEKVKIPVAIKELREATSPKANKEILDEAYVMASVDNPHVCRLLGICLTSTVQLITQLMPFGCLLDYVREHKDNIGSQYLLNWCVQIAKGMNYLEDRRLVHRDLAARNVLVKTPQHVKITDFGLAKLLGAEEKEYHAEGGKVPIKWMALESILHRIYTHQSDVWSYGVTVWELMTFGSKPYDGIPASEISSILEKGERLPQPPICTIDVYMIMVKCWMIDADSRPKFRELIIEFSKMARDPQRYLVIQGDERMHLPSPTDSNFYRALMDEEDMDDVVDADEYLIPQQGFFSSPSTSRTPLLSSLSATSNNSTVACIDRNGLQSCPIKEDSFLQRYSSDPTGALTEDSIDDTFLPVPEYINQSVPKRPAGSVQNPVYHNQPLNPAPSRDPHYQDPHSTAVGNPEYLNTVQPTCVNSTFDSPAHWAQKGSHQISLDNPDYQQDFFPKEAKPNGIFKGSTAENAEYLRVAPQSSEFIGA

As a reminder, the IC50 is the point on the concentration scale where inhibition reaches its midpoint. As to `COc1cc2ncc(C#N)c(Nc3cccc(F)c3)c2cc1OC` [Example 35, 4-[(3-Fluorophenyl)amino]-6,7-dimethoxy-3-quinolinecarbonitrile], the IC50 in experiment [1] (setting [8]) stood at 40.9 µg/mL (≈ 126 µM); in experiment [2] (setting [9]) it was 0.93 µg/mL (≈ 2.88 µM); in experiment [3] (read-out: IC50 SW620, cell number, Sulforhodamine B, 48 hours exposure, Table 4), 9.57 µg/mL (≈ 29.6 µM); in experiment [3] (setting [10]) it was 6.4 µg/mL (≈ 19.8 µM).

As for `COCC=CC(=O)Nc1ccc2ncc(C#N)c(Nc3cccc(Br)c3)c2c1` [Example 65, 4-Methoxy-but-2-enoic acid [4-(3-bromo-phenylamino)-3-cyano-quinolin-6-yl]-amide], the IC50 in experiment [4] (setting [11]) is 84 µg/mL (≈ 192 µM); in experiment [5], 40 µM; in experiment [1] (setting [8]), 84 µg/mL (≈ 192 µM); in experiment [2] (setting [9]), 60 µg/mL (≈ 137 µM); in experiment [6] (setting [12]), 48 µg/mL (≈ 110 µM); in experiment [3] (setting [10]), over 100 µg/mL.

Regarding `CN(C)Cc1cc([N+](=O)[O-])cc2c(Nc3cccc(Br)c3)c(C#N)cnc12` [Example 108, 4-[(3-Bromophenyl)amino]-8-dimethylaminomethyl-6-nitro-3-quinolinecarbonitrile], the concentration for half-maximal inhibition (IC50) in experiment [4] (setting [11]) was 6.85 µg/mL (≈ 16.1 µM); in experiment [5] it was over 100 µM; in experiment [1] (setting [8]), 7.97 µg/mL (≈ 18.7 µM); in experiment [2] (setting [9]), 6.34 µg/mL (≈ 14.9 µM); in experiment [6] (setting [12]) it was 6.6 µg/mL (≈ 15.5 µM); in experiment [3] (setting [10]) it was 14.6 µg/mL (≈ 34.1 µM).

Consider `CN(C)Cc1cc(N)cc2c(Nc3cccc(Br)c3)c(C#N)cnc12` [Example 109, 6-Amino-4-[(3-bromophenyl)amino]-8-dimethylaminomethyl-3-quinolinecarbonitrile], for which the IC50 in experiment [4] (setting [11]) stood at 35.1 µg/mL (≈ 88.5 µM); in experiment [1] (setting [8]), 37.9 µg/mL (≈ 95.7 µM); in experiment [2] (setting [9]), 30.7 µg/mL (≈ 77.4 µM); in experiment [6] (setting [12]), 38.9 µg/mL (≈ 98 µM); in experiment [3] (setting [10]), 40.8 µg/mL (≈ 103 µM).

For the compound `CC#CC(=O)Nc1cc(CN(C)C)c2ncc(C#N)c(Nc3cccc(Br)c3)c2c1` [Example 110, N-{4-[(3-Bromophenyl)amino]-3-cyano-8-dimethylaminomethyl-6-quinolinyl} -2-butynamide], the IC50 in experiment [4] (setting [11]) came out at 0.8 µg/mL (≈ 1.73 µM); in experiment [5], 40 µM; in experiment [2] (setting [9]), 1.3 µg/mL (≈ 2.81 µM); in experiment [6] (setting [12]) it was 0.9 µg/mL (≈ 1.95 µM); in experiment [3] (setting [10]) it was 0.7 µg/mL (≈ 1.51 µM).

Turning to `N#Cc1cnc2ccc(N)cc2c1Nc1ccc(F)c(F)c1` [Example 155, 6-Amino-4-[(3.4-difluorophenyl)amino]-3-quinolinecarbonitrile], the IC50 worked out at 6.08 µg/mL (≈ 20.5 µM) in experiment [4] (setting [11]); 7.49 µg/mL (≈ 25.3 µM) in experiment [1] (setting [8]); 3.28 µg/mL (≈ 11.1 µM) in experiment [2] (setting [9]); 4.3 µg/mL (≈ 14.5 µM) in experiment [6] (setting [12]); 7.55 µg/mL (≈ 25.5 µM) in experiment [3] (setting [10]).

As for `N#Cc1cnc2ccc(N)cc2c1Nc1ccc(Sc2ccccc2)c(Cl)c1` [Example 158, 6-Amino-4-[(3-chloro-4-thiophenoxyphenyl)amino]-3-quinolinecarbonitrile], the IC50 came out at 2.44 µg/mL (≈ 6.06 µM) in experiment [4] (setting [11]); 5.44 µg/mL (≈ 13.5 µM) in experiment [1] (setting [8]); 0.8 µg/mL (≈ 1.99 µM) in experiment [2] (setting [9]); 2.97 µg/mL (≈ 7.37 µM) in experiment [6] (setting [12]); 4.08 µg/mL (≈ 10.1 µM) in experiment [3] (setting [10]).

Consider `N#Cc1cccc(Nc2c(C#N)cnc3ccc(N)cc23)c1` [Example 162, 6-Amino-4-[(3-cyanophenyl)amino]-3-quinolinecarbonitrile], for which the IC50 stood at 8.13 µg/mL (≈ 28.5 µM) in experiment [4] (setting [11]); 35 µM in experiment [5]; 16.4 µg/mL (≈ 57.3 µM) in experiment [1] (setting [8]); 7.15 µg/mL (≈ 25.1 µM) in experiment [2] (setting [9]); 6.87 µg/mL (≈ 24.1 µM) in experiment [6] (setting [12]); 33.5 µg/mL (≈ 118 µM) in experiment [3] (setting [10]).

`N#Cc1cccc(Nc2c(C#N)cnc3ccc([N+](=O)[O-])cc23)c1` [Example 163, 4-[(3-Cyanophenyl)amino]-6-nitro-3-quinolinecarbonitrile]: the half-maximal inhibitory concentration (IC50) is 64.2 µg/mL (≈ 204 µM) in experiment [4] (setting [11]); over 100 µM in experiment [5]; 17.4 µg/mL (≈ 55.3 µM) in experiment [1] (setting [8]); 7.28 µg/mL (≈ 23.1 µM) in experiment [2] (setting [9]); 7.02 µg/mL (≈ 22.3 µM) in experiment [6] (setting [12]); 47.3 µg/mL (≈ 150 µM) in experiment [3] (setting [10]).

As to `CCN1CCN(CC#CC(=O)Nc2ccc3ncc(C#N)c(Nc4cccc(Br)c4)c3c2)CC1` [Example 188, N-[4-[(3-Bromophenyl)amino]-3-cyano-6-quinolinyl]-4-(N-ethylpiperazino)-2-butynamide], the IC50 was 1.43 µg/mL (≈ 2.76 µM) in experiment [1] (setting [8]), 0.54 µg/mL (≈ 1.04 µM) in experiment [6] (setting [12]) and 0.001 µM in experiment [7]. Besides, the “IC50 MCF7” value in experiment [1] (setting [13]) amounted to 0.8 µg/mL (≈ 1.55 µM). Moreover, the “IC50 A431” value in experiment [6] (setting [13]) was 0.4 µg/mL and 0.579 µg/mL.

Turning to `CCN(CC)CC#CC(=O)Nc1ccc2ncc(C#N)c(Nc3ccc(F)c(Cl)c3)c2c1` [Example 189, N-[4-[(3-Chloro-4-fluorophenyl)amino]-3-cyano-6-quinolinyl]-4-diethylamino-2-butynamide], the IC50 in experiment [5] was 50 µM; in experiment [2] (setting [9]), 0.03 µg/mL (≈ 0.0667 µM); in experiment [6] (setting [12]), 0.04 µg/mL (≈ 0.0889 µM); in experiment [3] (setting [10]) it was 0.1 µg/mL (≈ 0.222 µM); in experiment [7], 0.002 µM.

As for `COCC#CC(=O)Nc1ccc2ncc(C#N)c(Nc3ccc(F)c(Cl)c3)c2c1` [Example 194, N-[4-[-(3-Chloro-4-fluorophenyl)amino]-3-cyano-6-quinolinyl]-4-methoxy-2-butynamide], the IC50 in experiment [5] was over 100 µM; in experiment [2] (setting [9]), 0.2 µg/mL (≈ 0.489 µM); in experiment [6] (setting [12]) it was 0.1 µg/mL (≈ 0.245 µM); in experiment [3] (setting [10]), 0.2 µg/mL (≈ 0.489 µM); in experiment [7], 0.0017 µM.

In the case of `CCN(CC)CC=CC(=O)Nc1cc2c(Nc3ccc(F)c(Br)c3)c(C#N)cnc2cc1OC` [Example 209, 4-Diethylamino-but-2-enoic acid [4-(3-bromo-4-fluorophenylamino)-3-cyano-7-methoxy-quinolin-6-yl]-amide], the IC50 in experiment [5] is 9 µM; in experiment [2] (setting [9]), 0.048 µg/mL (≈ 0.0912 µM); in experiment [6] (setting [12]), 0.113 µg/mL (≈ 0.215 µM); in experiment [3] (setting [10]), 0.38 µg/mL (≈ 0.722 µM); in experiment [7] it was 0.005 µM.

`CCOc1cc2ncc(C#N)c(Nc3ccc(Sc4ccccc4)c(Cl)c3)c2cc1OCC` [Example 254, 4-[3-Chloro-4-(phenylthio)phenylamino]-6,7-diethoxy-3-quinolinecarbonitrile]: the concentration for half-maximal inhibition (IC50) in experiment [4] (setting [11]) came out at 0.07 µg/mL (≈ 0.147 µM); in experiment [1] (setting [8]), 0.07 µg/mL (≈ 0.147 µM); in experiment [2] (setting [9]) it was 0.01 µg/mL (≈ 0.021 µM); in experiment [6] (setting [12]), 0.07 µg/mL (≈ 0.147 µM); in experiment [3] (setting [10]) it was 0.03 µg/mL (≈ 0.063 µM).

In the case of `CCOc1cc2ncc(C#N)c(N(C)c3ccccc3)c2cc1OCC` [Example 258, 4-(N-Methylphenylamino)-6,7-diethoxy-3-quinolinecarbonitrile], the IC50 in experiment [4] (setting [11]) was 6.12 µg/mL (≈ 17.6 µM); in experiment [1] (setting [8]), 7.87 µg/mL (≈ 22.7 µM); in experiment [6] (setting [12]) it was 4.67 µg/mL (≈ 13.4 µM). Besides, in experiment [4] (setting [13]), the “IC50 LOX” value stood at 10.72 µg/mL (≈ 30.9 µM). Further, in experiment [1] (setting [13]), the “IC50 MCF7” value came to 9.69 µg/mL (≈ 27.9 µM). Also, the “IC50 A431” value in experiment [6] (setting [13]) worked out at 5.42 µg/mL (≈ 15.6 µM).

On to `COCCOc1cc2ncc(C#N)c(Nc3cccc(Br)c3)c2cc1OCCOC` [Example 311, 4-[(3-Bromophenyl)amino]-6,7-bis(2-methoxyethoxy)-3-quinolinecarbonitrile], for which the IC50 is 2.8 µg/mL (≈ 5.93 µM) in experiment [4] (setting [11]); 2 µM and 2.5 µM in experiment [5]; 0.7 µg/mL (≈ 1.48 µM) in experiment [2] (setting [9]); 1 µg/mL (≈ 2.12 µM) in experiment [3] (setting [10]).

`COc1cc2c(Nc3ccc(O)cc3C)c(C#N)cnc2cc1OCCCN1CCOCC1` [Example 312, 4-(4-Hydroxy-2-methyl-phenylamino)-6-methoxy-7-(3-morpholin-4-yl-propoxy)-quinoline-3-carbonitrile]: the IC50 in experiment [5] is over 100 µM; in experiment [2] (setting [14]), 2.25 µg/mL (≈ 5.03 µM); in experiment [6] (setting [15]), 0.491 µg/mL (≈ 1.09 µM); in experiment [3] (setting [16]), 3.53 µg/mL (≈ 7.88 µM); in experiment [7], 0.05 µM.

Consider `CC(C)(C)[Si](C)(C)OCC#CC(=O)Nc1ccc2ncc(C#N)c(Nc3cccc(Br)c3)c2c1` [Example 331, N-[4-[(3-Bromophenyl)amino]-3-cyano-6-quinolinyl]-4-t-butyldimethylsiloxy-2-butynamide], for which the IC50 is 0.04 µg/mL (≈ 0.0747 µM) in experiment [4] (cell number, Sulforhodamine B, 48 hours exposure, read-out: IC50 LOX); 0.44 µg/mL (≈ 0.822 µM) in experiment [1] (cell number, Sulforhodamine B, 48 hours exposure, read-out: IC50 MCF7); 0.16 µg/mL (≈ 0.299 µM) in experiment [2] (setting [14]); 0.03 µg/mL (≈ 0.056 µM) in experiment [6] (setting [15]); 0.04 µg/mL (≈ 0.0747 µM) in experiment [3] (setting [16]).

These data come from EP0973746B1, “SUBSTITUTED 3-CYANO QUINOLINES” (Wyeth Holdings Corporation, priority 1997, dated 1998).
